Experimental data published in ChEMBL document CHEMBL1158020, “Antitumor agents. 190. Absolute stereochemistry of the cytotoxic germacranolides, tomenphantins A and B, from Elephantopus tomentosus” (1999).
In brackets after ≈: the same amount, converted by molar mass.

Tested on: KB
Test: Cytotoxicity against human KB cells
Assay type: functional
Settings: read-out: ED50 (the source's name)

C=C(C)C(=O)O[C@H]1C/C(CO)=C/CC[C@@]2(C)O[C@H]2[C@H]2OC(=O)C(=C)[C@@H]21 [TOMENPHANTIN A]
EC50: 3 µg/mL (≈ 8.61 µM)

C=C(C)C(=O)O[C@H]1C/C(C=O)=C/CC[C@@]2(C)O[C@H]2[C@H]2OC(=O)C(=C)[C@@H]21 [TOMENPHANTIN B]
EC50: 2.7 µg/mL (≈ 7.79 µM)
